From US10603296B1, “Compositions and methods for diagnosis and treatment of neuromuscular disorders” (United States of America as represented by the Secretary of …, priority 2019, dated 2020)
“Also recorded” adds a separate entry of the source.

Key:
G-protein Gi1α = settings: literature (Galbiati et al., Biochem J 313:717-720); cited from earlier work
[1] = room temperature; cited from earlier work
[2] = test system: alpha-smooth muscle actin (α-SMA); assay: BioMAP human primary cell system mimicking myofibroblast development: alpha-smooth muscle actin level; type: cell-based; settings: human primary lung fibroblasts stimulated with TGF-β and TNF-α, 24 hours; 2.6, 7.8, 23 and 70 μM; dose-dependent (FIG. 4)
Protocol: Phenotypic profiling, including antifibrotic activity, was conducted across 12 human primary cell-based systems as part of DiscoverX's BioMAP Diversity Plus program. These systems are designed to model complex human tissue and disease biology of the vasculature, skin, lung, and inflammatory tissues. […] Cell-based activated systems were incubated with pure N-acetylhistamine for 24 to 72 hours. Protein-based biomarkers from activated cell systems were measured and compared with controls. Biomarker activities were annotated when 2 or more consecutive concentrations change in the same directions relative to vehicle controls, were outside of the significance envelope and had at least one concentration with an effect size >20% (log 10 ratio)>0.1.
In our study, N-acetylhistamine, an […] involved in histadine metabolism, caused a significant and dose-dependent decrease in alpha-smooth muscle actin (α-SMA), a protein involved in muscle contraction, cell motility, structure and integrity and a marker for activated myofibroblast phenotype, in a human cell system mimicking myofibroblast development. In this system, human primary lung fibroblasts were stimulated with TGF-β and TNF-α and incubated with the test agent, drug control, or vehicle control for 24 hours. A negative, non-stimulated system was also included.

| SMILES | effect on myristoylation of Gi1α (G-protein Gi1α) | stability of the powder [1] | change in alpha-smooth muscle actin (α-SMA) compared to internal controls [2] |
| --- | --- | --- | --- |
| CCCCCCCCCCCCC(O)C(=O)O (stereo not drawn) [2-hydroxymyristate] | inhibits |  |  |
| CC(=O)NCCc1c[nH]cn1 [N-acetylhistamine] |  | stable at room temperature | significantly decreased; also recorded: lowered |
